Test system: procaspase-6 cleavage in primary hepatocytes
Test: Procaspase-6 cleavage induced by TNFα and CHX in primary hepatocytes (IB)
Type: cell-based, mice
Conditions: 40 μM pretreatment 1 hr, then 30 μg/ml CHX and 50 ng/ml TNFα 2 hrs
Text: FIGS. 5A-5K. AMPK phosphorylates caspase-6 to inhibit its cleavage and activation. FIG. 5A. […] IB analysis of cell lysates. n=3. Mean±SD. *, P<0.05, two-way ANOVA. FIG. 5B. […] Cell lysates were subject to caspase-6 activity assay. Mean±SD. *, P<0.05. FIG. 5C. Caspase-6 Ser^257 locates within AMPK substrate motif. FIG. 5C. discloses SEQ ID NOS 57-63, respectively, in order of appearance. FIG. 5D. In vitro kinase assay using recombinant caspase-6, and recombinant AMPKα1β1γ1 or AMPKα2β1γ1 active kinase. FIG. 5E. Alignment of caspase-6 sequence. FIG. 5E. discloses SEQ ID NOS 64-67, respectively, in order of appearance. FIG. 5F. HEK293T cells overexpressing caspase-6-myc WT, S^257A, S^257D or S^257E mutant were treated with 10 μg/ml CHX and 25 ng/ml TNFα for 2 hrs. IB analysis of cell lysates. FIGS. 5G-5J. C57BL/6J mice were fed CD-HFD for 6 weeks, followed by intraperitoneally injection of 25 mg/kg A-769662 or vehicle daily for 2 weeks while continuous CD-HI-D. Mice were sacrificed 6 hrs after last injection. FIG. 5G. IB analysis of liver lysates. n=5. FIG. 5H. Liver lysates were subject to caspase-6 activity assay. n=7. FIG. 5I. Liver sections stained as indicated therein (aCasp6 and DAPI); in the merged image sections, the different stains correspond to the grayscale shades as indicated in the single stained images to the left. Scale bar=50 μm. […] Quantification of aCasp6 staining per field in FIG. 5I. n=7. […]

procaspase-6 cleavage: significantly inhibited
Structure (SMILES): N#Cc1c(O)c2c(-c3ccc(-c4ccccc4O)cc3)csc2[nH]c1=O [A-769662]
